How the values were obtained:
NCI-H460 = experiment: Growth inhibition of human NCI-H460 after 48 hrs by SRB assay; type: functional; details: NCI-H460, 48 h
[1] = Inhibition of calf brain tubulin polymerization; parameters: species or system Bos taurus
SK-OV-3 = experiment: Growth inhibition of human SK-OV-3 after 48 hrs by SRB assay; type: functional; details: SK-OV-3, 48 h
DU-145 = experiment: Growth inhibition of human DU145 after 48 hrs by SRB assay; type: functional; details: DU-145, 48 h

For `COc1ccc2c(c1O)CCCC=C2c1cc(OC)c(OC)c(OC)c1`, the GI50 (NCI-H460) was 0.028 nM, the IC50 [1] was 1700 nM and the GI50 (SK-OV-3) was under 0.03 nM. It also gave a GI50 (DU-145) of 0.0032 nM.
Compound `COc1ccc(/C=C\c2cc(OC)c(OC)c(OC)c2)c(O)c1O` [COMBRETASTATIN A-1] has a GI50 (NCI-H460) of 2200 nM and a GI50 (DU-145) of 510 nM.
With `COc1ccc(C(=O)C2=CCCc3c2cc(OC)c(OC)c3OC)c(O)c1O` the GI50 (NCI-H460) was 2800 nM, the IC50 [1] was over 40000 nM and the GI50 (SK-OV-3) was 1400 nM. For the same compound, the GI50 (DU-145) was 3400 nM.
In the case of `COc1ccc2c(c1O)CCCC(c1cc(OC)c(OC)c(OC)c1)=C2`, the GI50 (NCI-H460) is reported as 1200 nM, the IC50 [1] is reported as over 40000 nM and the GI50 (SK-OV-3) is reported as 270 nM. It also gave a GI50 (DU-145) of 440 nM.
`COc1ccc(C(=O)C2=CCCCc3c2cc(OC)c(OC)c3OC)cc1O` showed a GI50 (NCI-H460) of over 10000 nM, an IC50 [1] of over 40000 nM and a GI50 (DU-145) of over 10000 nM.
With `COc1ccc2c(c1)CCCC=C2c1cc(OC)c(OC)c(OC)c1` the GI50 (NCI-H460) was 51 nM, the IC50 [1] was 1400 nM and the GI50 (SK-OV-3) was 52 nM. The GI50 (DU-145) was 27 nM.
For `COc1ccc(/C=C\c2cc(OC)c(OC)c(OC)c2)cc1O` [COMBRETASTATIN A4], the GI50 (NCI-H460) was 2 nM, the GI50 (SK-OV-3) was 0.13 nM and the GI50 (DU-145) was 2 nM.
In the case of `COc1ccc(CC2CCCCc3c2cc(OC)c(OC)c3OC)c(O)c1O` (stereo not given), the GI50 (NCI-H460) is reported as over 10000 nM, the IC50 [1] is reported as 7400 nM and the GI50 (DU-145) is reported as over 10000 nM.
`COc1ccc(C(=O)C2=CCCc3c2cc(OC)c(OC)c3OC)cc1O` gave a GI50 (NCI-H460) of 6000 nM, an IC50 [1] of 24000 nM and a GI50 (DU-145) of 3100 nM.
Work on `COc1cc2c(cc1O)C(=O)C1c3cc(OC)c(OC)c(OC)c3CCC21` (stereo not given) yielded a GI50 (NCI-H460) of over 10000 nM, an IC50 [1] of over 40000 nM and a GI50 (DU-145) of over 10000 nM.
In the case of `COc1ccc2c(c1)CCCC(c1cc(OC)c(OC)c(OC)c1)=C2`, the GI50 (NCI-H460) is reported as 470 nM, the IC50 [1] is reported as over 40000 nM and the GI50 (SK-OV-3) is reported as 440 nM. It also gave a GI50 (DU-145) of 550 nM.
Compound `COc1ccc(C(=O)C2=CCCCc3c2cc(OC)c(OC)c3OC)c(O)c1O` has a GI50 (NCI-H460) of over 10000 nM, an IC50 [1] of over 40000 nM and a GI50 (DU-145) of over 10000 nM.

From ChEMBL document CHEMBL1140060, “Design, synthesis and biological evaluation of dihydronaphthalene and benzosuberene analogs of the combretastatins as inhibitors of tubulin polymerization in cancer chemotherapy” (Bioorg Med Chem, 2008)
